Test results published in patent publication US20060069132A1, “Azolecarboxamide herbicides” (priority 2004, published 2006).

Tests used:
pigweed [1] = test: Test C pre-/postemergence herbicide test; format: in vivo, Amaranthus retroflexus
Procedure, shortened: (§1)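 Emerged plants at the 1- to 4-leaf stage (2–18 cm), or freshly planted seeds, received test chemicals in a non-phytotoxic solvent mixture with surfactant. Response was visually scored against controls after 12 to 14 days in the greenhouse, on a 0 (no effect) to 100 (complete control) scale.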

kochia = test: Test C pre-/postemergence herbicide test; format: in vivo, Kochia scoparia
Procedure, shortened: as §1

lambsquarters = test: Test C pre-/postemergence herbicide test; format: in vivo, Chenopodium album
Procedure, shortened: as §1

common ragweed = test: Test C pre-/postemergence herbicide test; format: in vivo, Ambrosia elatior; parameters: key to Plant response rating, Ragweed: 0 = no effect, 100 = complete control; conditions: for Plant response rating (0 = no effect, 100 = complete control), Ragweed: 125 g ai/ha
Procedure, shortened: as §1

goosegrass = test: Test C pre-/postemergence herbicide test; format: in vivo, Eleusine indica
Procedure, shortened: as §1

pigweed [2] = test: Test B pre-/postemergence herbicide test; format: in vivo, Amaranthus retroflexus; conditions: for Plant response rating (0 to 100 scale), Pigweed: 0 is no effect, preemergence
Procedure, shortened: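 Seeds were planted and treated preemergence with compounds formulated in a non-phytotoxic solvent mixture containing surfactant, while plants at the 1- to 4-leaf stage (2 to 18 cm) received postemergence sprays. Flooded paddy plants were grown to the 2-leaf stage. After 13 to 15 days in a greenhouse, injury was visually rated 0–100 against untreated controls.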

wild oat = test: Test B postemergence herbicide test; format: in vivo, Avena fatua
Procedure, shortened: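 Formulated test chemicals went onto postemergence plants measuring 2 to 18 cm, at one to four leaves. For the paddy assay, species had reached two leaves. Scoring took place 13–15 days later by eye, relative to untreated plants, using 0 for no effect up to 100 for full control.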

large crabgrass = test: Test C pre-/postemergence herbicide test; format: in vivo, Digitaria sanguinalis
Procedure, shortened: as §1

[3] = 125 g ai/ha, 100 is complete control
[4] = 62 g ai/ha, preemergence, scale 0 to 100
[5] = 250 g ai/ha, scale 0-100, preemergence
[6] = 500 g ai/ha, scale 0 to 100 (0 no effect, 100 complete control), visual, 12 to 14 days, preemergence
[7] = 125 g ai/ha, visual rating, scale 0 (no effect) to 100 (complete control), postemergence
[8] = Postemergence, 500 g ai/ha, scale 0 (no effect) to 100 (complete control)

CCNC(=O)c1ccc(F)c(NC(=O)C2CN(C(C)(C)C)N=C2CC)c1 (stereo not shown) [Compound 336, 1-(1,1-dimethylethyl)-3-ethyl-N-[5-[(ethylamino)carbonyl]-2-fluorophenyl]-4,5-dihydro-1H-pyrazole-4-carboxamide]
100%: pest or weed control at 62 g/ha (pigweed [1]; Amaranthus retroflexus, pre-emergence, 62 g ai/ha, preemergence, scale 0 to 100, read-out: Plant response rating, Pigweed) | pest or weed control at 125 g/ha (pigweed [1]; Amaranthus retroflexus, pre-emergence, 125 g ai/ha, scale 0 (no effect) to 100 (complete control), visual, 12 to 14 days, read-out: Plant response rating, Pigweed) | pest or weed control at 250 g/ha (pigweed [1]; Amaranthus retroflexus, pre-emergence, 250 g ai/ha, scale 0-100, read-out: Plant response rating, Pigweed) | pest or weed control at 500 g/ha (pigweed [1]; Amaranthus retroflexus, pre-emergence, 500 g ai/ha, scale 0 to 100 (0 no effect, 100 complete control), visual, 12 to 14 days, read-out: Plant response rating, Pigweed) | pest or weed control at 250 g/ha (kochia; Bassia scoparia, pre-emergence, 250 g ai/ha, scale 0-100, read-out: Plant response rating, Kochia) | pest or weed control at 500 g/ha (kochia; Bassia scoparia, pre-emergence, 500 g ai/ha, scale 0 to 100 (0 no effect, 100 complete control), visual, 12 to 14 days, read-out: Plant response rating, Kochia) | pest or weed control at 62 g/ha (lambsquarters; Chenopodium album, pre-emergence, 62 g ai/ha, preemergence, scale 0 to 100, read-out: Plant response rating, Lambsquarters) | pest or weed control at 125 g/ha (lambsquarters; Chenopodium album, pre-emergence, 125 g ai/ha, scale 0 (no effect) to 100 (complete control), visual, 12 to 14 days, read-out: Plant response rating, Lambsquarters) | pest or weed control at 250 g/ha (lambsquarters; Chenopodium album, pre-emergence, 250 g ai/ha, scale 0-100, read-out: Plant response rating, Lambsquarters) | pest or weed control at 500 g/ha (lambsquarters; Chenopodium album, pre-emergence, 500 g ai/ha, scale 0 to 100 (0 no effect, 100 complete control), visual, 12 to 14 days, read-out: Plant response rating, Lambsquarters) | pest or weed control at 500 g/ha (common ragweed; Ambrosia artemisiifolia, pre-emergence, 500 g ai/ha, scale 0 to 100 (0 no effect, 100 complete control), visual, 12 to 14 days, read-out: Plant response rating, Ragweed) | pest or weed control at 125 g/ha (goosegrass; Eleusine indica, pre-emergence, 312 h, 125 g ai/ha, scale 0 (no effect) to 100 (complete control), visual, 12 to 14 days, read-out: Plant response rating, Goosegrass) | pest or weed control at 250 g/ha (goosegrass; Eleusine indica, pre-emergence, 312 h, 250 g ai/ha, scale 0-100, read-out: Plant response rating, Goosegrass) | pest or weed control at 500 g/ha (goosegrass; Eleusine indica, pre-emergence, 312 h, 500 g ai/ha, scale 0 to 100 (0 no effect, 100 complete control), visual, 12 to 14 days, read-out: Plant response rating, Goosegrass) | pest or weed control at 500 g/ha (pigweed [2]; Amaranthus retroflexus, pre-emergence, 336 h, 500 g ai/ha, visual rating, 0 = no effect, 100 = complete control, read-out: Plant response rating, Pigweed) | pest or weed control at 62 g/ha (large crabgrass; Digitaria sanguinalis, pre-emergence, 312 h, 62 g ai/ha, preemergence, scale 0 to 100, read-out: Plant response rating, Crabgrass, Large) | pest or weed control at 125 g/ha (large crabgrass; Digitaria sanguinalis, pre-emergence, 312 h, 125 g ai/ha, scale 0 (no effect) to 100 (complete control), visual, 12 to 14 days, read-out: Plant response rating, Crabgrass, Large) | pest or weed control at 250 g/ha (large crabgrass; Digitaria sanguinalis, pre-emergence, 312 h, 250 g ai/ha, scale 0-100, read-out: Plant response rating, Crabgrass, Large) | pest or weed control at 500 g/ha (large crabgrass; Digitaria sanguinalis, pre-emergence, 312 h, 500 g ai/ha, scale 0 to 100 (0 no effect, 100 complete control), visual, 12 to 14 days, read-out: Plant response rating, Crabgrass, Large)
95%: pest or weed control at 62 g/ha (goosegrass; Eleusine indica, pre-emergence, 312 h, 62 g ai/ha, preemergence, scale 0 to 100, read-out: Plant response rating, Goosegrass)
100: Plant response rating (0 to 100 scale), Pigweed (pigweed [2]; [3])
80%: pest or weed control at 250 g/ha (common ragweed; Ambrosia artemisiifolia, pre-emergence, 250 g ai/ha, scale 0-100, read-out: Plant response rating, Ragweed)
10%: pest or weed control at 125 g/ha (wild oat; Avena fatua, post-emergence, 336 h, 125 g ai/ha, visual rating, scale 0 (no effect) to 100 (complete control), read-out: Oat, Wild plant response rating)
60%: pest or weed control at 125 g/ha (pigweed [2]; Amaranthus retroflexus, post-emergence, 336 h, 125 g ai/ha, visual rating, scale 0 (no effect) to 100 (complete control), read-out: Pigweed plant response rating)
20%: pest or weed control at 500 g/ha (wild oat; Avena fatua, post-emergence, 336 h, postemergence, 500 g ai/ha, scale 0 to 100, 0 is no effect, 100 is complete control, read-out: Oat, Wild plant response rating)
70%: pest or weed control at 125 g/ha (kochia; Bassia scoparia, pre-emergence, 125 g ai/ha, scale 0 (no effect) to 100 (complete control), visual, 12 to 14 days, read-out: Plant response rating, Kochia) | pest or weed control at 500 g/ha (pigweed [2]; Amaranthus retroflexus, post-emergence, 336 h, postemergence, 500 g ai/ha, scale 0 to 100, 0 is no effect, 100 is complete control, read-out: Pigweed plant response rating)
5%: pest or weed control at 62 g/ha (kochia; Bassia scoparia, pre-emergence, 62 g ai/ha, preemergence, scale 0 to 100, read-out: Plant response rating, Kochia)
30%: pest or weed control at 62 g/ha (common ragweed; Ambrosia artemisiifolia, pre-emergence, 62 g ai/ha, preemergence, scale 0 to 100, read-out: Plant response rating, Ragweed)

CCc1nn(C(C)(C)CC)nc1C(=O)Nc1cccc(C(=O)N(C)C)c1 [Compound 372]
30: Oat, Wild plant response rating (wild oat; [8])
90: Plant response rating (0 = no effect, 100 = complete control), Ragweed (common ragweed; preemergence) | Plant response rating, Goosegrass (goosegrass; [5]) | Plant response rating, Goosegrass (goosegrass; [6])
70: Plant response rating, Ragweed (common ragweed; [4]) | Plant response rating, Goosegrass (goosegrass; [4]) | Plant response rating, Crabgrass, Large (large crabgrass; [4])
80: Plant response rating (0 = no effect, 100 = complete control), Goosegrass (goosegrass; 125 g ai/ha, preemergence) | Pigweed plant response rating (pigweed [2]; [8])
85: Plant response rating, Pigweed (pigweed [1]; [4]) | Plant response rating (0 = no effect, 100 = complete control), Crabgrass, Large (large crabgrass; 125 g ai/ha, preemergence)
40: Pigweed plant response rating (pigweed [2]; [7])
95: Plant response rating (0 = no effect, 100 = complete control), Pigweed (pigweed [1]; 125 g ai/ha, preemergence) | Plant response rating, Crabgrass, Large (large crabgrass; [5]) | Plant response rating, Crabgrass, Large (large crabgrass; [6])
0: Oat, Wild plant response rating (wild oat; [7])
100: Plant response rating, Pigweed (pigweed [1]; [5]) | Plant response rating, Pigweed (pigweed [1]; [6]) | Plant response rating, Kochia (kochia; [4]) | Plant response rating (0 = no effect, 100 = complete control), Kochia (kochia; 125 g ai/ha, preemergence) | Plant response rating, Kochia (kochia; [5]) | Plant response rating, Kochia (kochia; [6]) | Plant response rating, Lambsquarters (lambsquarters; [4]) | Plant response rating (0 = no effect, 100 = complete control), Lambsquarters (lambsquarters; 125 g ai/ha, preemergence) | Plant response rating, Lambsquarters (lambsquarters; [5]) | Plant response rating, Lambsquarters (lambsquarters; [6]) | Plant response rating, Ragweed (common ragweed; [5]) | Plant response rating, Ragweed (common ragweed; [6])

CCNC(=O)c1cccc(NC(=O)c2nn(C(C)(C)CC)nc2CC)c1 [Compound 376]
70: Pigweed plant response rating (pigweed [2]; [7])
95: Plant response rating, Kochia (kochia; [4])
80: Plant response rating, Goosegrass (goosegrass; [4]) | Plant response rating, Crabgrass, Large (large crabgrass; [4])
0: Plant response rating, Ragweed (common ragweed; [4]) | Plant response rating (0 = no effect, 100 = complete control), Ragweed (common ragweed; preemergence)
20: Oat, Wild plant response rating (wild oat; [7])
50: Plant response rating, Ragweed (common ragweed; [5]) | Plant response rating, Ragweed (common ragweed; [6])
40: Oat, Wild plant response rating (wild oat; [8])
90: Pigweed plant response rating (pigweed [2]; [8])
100: Plant response rating, Pigweed (pigweed [1]; [4]) | Plant response rating (0 = no effect, 100 = complete control), Pigweed (pigweed [1]; 125 g ai/ha, preemergence) | Plant response rating, Pigweed (pigweed [1]; [5]) | Plant response rating, Pigweed (pigweed [1]; [6]) | Plant response rating (0 = no effect, 100 = complete control), Kochia (kochia; 125 g ai/ha, preemergence) | Plant response rating, Kochia (kochia; [5]) | Plant response rating, Kochia (kochia; [6]) | Plant response rating, Lambsquarters (lambsquarters; [4]) | Plant response rating (0 = no effect, 100 = complete control), Lambsquarters (lambsquarters; 125 g ai/ha, preemergence) | Plant response rating, Lambsquarters (lambsquarters; [5]) | Plant response rating, Lambsquarters (lambsquarters; [6]) | Plant response rating (0 = no effect, 100 = complete control), Goosegrass (goosegrass; 125 g ai/ha, preemergence) | Plant response rating, Goosegrass (goosegrass; [5]) | Plant response rating, Goosegrass (goosegrass; [6]) | Plant response rating (0 to 100 scale), Pigweed (pigweed [2]; [3]) | Plant response rating (0 = no effect, 100 = complete control), Crabgrass, Large (large crabgrass; 125 g ai/ha, preemergence) | Plant response rating, Crabgrass, Large (large crabgrass; [5]) | Plant response rating, Crabgrass, Large (large crabgrass; [6])

Cc1nn(C(C)(C)C)nc1C(=O)Nc1cccc(C(=O)N(C)C)c1 [Compound 391]
0: Oat, Wild plant response rating (wild oat; [7])
98: Plant response rating, Crabgrass, Large (large crabgrass; [4])
20: Oat, Wild plant response rating (wild oat; [8])
100: Plant response rating (0 = no effect, 100 = complete control), Pigweed (pigweed [1]; 125 g ai/ha, preemergence) | Plant response rating, Pigweed (pigweed [1]; [5]) | Plant response rating, Pigweed (pigweed [1]; [6]) | Plant response rating, Kochia (kochia; [4]) | Plant response rating (0 = no effect, 100 = complete control), Kochia (kochia; 125 g ai/ha, preemergence) | Plant response rating, Kochia (kochia; [5]) | Plant response rating, Kochia (kochia; [6]) | Plant response rating, Lambsquarters (lambsquarters; [4]) | Plant response rating (0 = no effect, 100 = complete control), Lambsquarters (lambsquarters; 125 g ai/ha, preemergence) | Plant response rating, Lambsquarters (lambsquarters; [5]) | Plant response rating, Lambsquarters (lambsquarters; [6]) | Plant response rating (0 = no effect, 100 = complete control), Ragweed (common ragweed; preemergence) | Plant response rating, Ragweed (common ragweed; [5]) | Plant response rating, Ragweed (common ragweed; [6]) | Plant response rating (0 to 100 scale), Pigweed (pigweed [2]; [3]) | Plant response rating (0 = no effect, 100 = complete control), Crabgrass, Large (large crabgrass; 125 g ai/ha, preemergence) | Plant response rating, Crabgrass, Large (large crabgrass; [5]) | Plant response rating, Crabgrass, Large (large crabgrass; [6])
80: Plant response rating, Goosegrass (goosegrass; [4])
90: Plant response rating, Goosegrass (goosegrass; [5])
95: Plant response rating, Pigweed (pigweed [1]; [4]) | Plant response rating, Goosegrass (goosegrass; [6])
70: Pigweed plant response rating (pigweed [2]; [8])
50: Pigweed plant response rating (pigweed [2]; [7])
85: Plant response rating, Ragweed (common ragweed; [4]) | Plant response rating (0 = no effect, 100 = complete control), Goosegrass (goosegrass; 125 g ai/ha, preemergence)
